Read-outs that look alike come from different tables or passages of the source. Residues, ends and D or L forms follow the SMILES beside them. *: point of attachment. FITC = O=C1OC2(c3ccc(O)cc3Oc3cc(O)ccc32)c2ccc(NC(=S)*)cc21; Ahx = NCCCCCC(=O)O
How the values were obtained:
Assay type in all cases: binding
SHANK1 PDZ [1] = biological target: T1, SHANK1 PDZ (Homo sapiens, UniProt Q9Y566); test: Isothermal titration calorimetry (ITC); conditions: for Kd / n (ITC stoichiometry) / ΔH / ΔS: 25 mM Tris pH 7.5, 150 mM NaCl, 25 °C
T1 construct: Human Shank1 PDZ domain (656-762) was cloned into the pGEX-6P-2 expression vector; GST (N, cleaved yes); made in house; host or cells: E. coli BL21 Gold
T1 sequence (Q9Y566 656-762): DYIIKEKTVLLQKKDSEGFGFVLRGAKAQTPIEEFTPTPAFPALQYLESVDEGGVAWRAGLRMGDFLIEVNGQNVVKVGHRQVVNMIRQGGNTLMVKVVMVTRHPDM
Description: Fitted thermograms and thermodynamic signatures for the tested peptides and hydrazones. […] For individual raw ITC data and fitted thermograms see Fig. S14. ^† […]
Figure S14. Raw ITC data (top) and fitted thermograms (bottom) for the tested hydrazone hits and […]
0.75-1 mM peptide or hydrazone solution to 75-150 µM protein.
(1 picture or pasted object on this page, not shown here)
2.5. Isothermal tritration calorimetry
ITC experiments were carried out using Microcal ITC200i instrument (Malvern) at 25°C […]
Shank1 PDZ was dialysed against the buffer prior to experiment, lyophilized peptides and hydrazones were dissolved in the same buffer. 75 or […]
depending on compound solubility, from the syringe using 2 µL injections with 120 s spacing between the injections for 20 injection. Heats of peptide dilution w ere measured by titrating the peptide into buffer and subtracted from each measurement. Dat a was analysed using Microcal Origin 8 and fitt ed to a one-binding site model. […]

SHANK1 PDZ [2] = biological target: T1, SHANK1 PDZ; test: Fluorescence anisotropy competition assay (FITC-Ahx-TRL-COOH tracer); conditions: 50 mM NH4Ac pH 6.5, 10 mM aniline
Description: (d) FA competition curves for hybrids from the extended screen. All screening and validation assays were performed in 50 mM NH4Ac buffer, pH 6.5, 10 mM aniline using 1 μM final protein concentration and 10 nM FITC-Ahx-TRL-COOH as tracer at room temperature. […] Anisotropy is expressed relative to the control experiment where no competitor is present. Hit thresholds were defined based on the relative anisotropy of the (i) buffer control (rbuffer − 3σ) and (ii) the TRL control (rTRL − 3σ). Compounds below these thresholds are coloured blue and red respectively.
(0.22 µm membrane) and applied to glutathione beads and washed with 10 CV 20 mM Tris, pH 8, 500 mM NaCl. GST was cleaved on-column overnight at 4 °C using Prescission protease.
The eluted fractions were concentrated and purified by size-exclusion chromatography on S75 26/60 pg column in 20 mM Tris, 150 mM NaCl, 5% glycerol pH 7.5 buffer. Collected fractions were analysed by SDS-PAGE and concentrated. Pure protein was analysed by high resolution […]
determined by UV-VIS spectroscopy using the 8480 M-1 cm-1 extinction coefficient. […]
2.3. Aldehyde library selection
A diverse subset of fragments was selected from commercially available small molecule aldehydes (AldrichCPR, Fluorochem and Acros). Available compounds having one aldehyde functionality were filtered first based on physicochemical properties: 80 Da < MW < 400 Da, HBA, HBD ≤ 3, and clogP ≤ 5. To select a diverse set of compounds , first, binary molecular fingerprint s were generated for each molecule using the FragFp descriptor implemented in DataWarrior (openmolecules.org) , which relies on a predefined substructure fragment library and is used to compare 2D structural similarities. Then, using the same software , structurall y dissimilar subset of compounds was selected based on the molecular fingerprints. Compounds were further excluded based on undesired functional groups and commerical availability , […]
carboxylic acid functional groups.
2.4. Fluorescence anisotropy
Fluorescence anisotropy assays were performed in 384-well plates (Greiner Bio-one) and the fluorescence anisotropy measured using a Perkin Elmer EnVisionTM 2103 MultiLabel plate reader, with excitation at 480 nm (30 nm bandwidth), polarised dichroic mirror at 505 nm and […]
°C. Fluorescence anisotropy data was processed as described previously.4 The data from both […]
the P (perpendicular intensity) and S (parallel intensity) channels, resulting from this measurement and corrected by subtracting the corresponding control wells, were used to calculate the intensity and anisotropy for each well following Equations 1 and 2: […]
r = anisotropy, I = total intensity, P = perpendicular intensity, S = parallel intensity, G is an […]
Assays were performed in 50 mM NH4Ac, 10 mM aniline, pH 6.5 buffer. Shank 1 PDZ was dialysed into the assay buffer prior to the experiment. […]

[3] = biological target: T2, PDZ domain of PSD-95 (PSD-95 PDZ1) (Homo sapiens, UniProt P78352); test: 1H-15N HSQC chemical shift perturbation titration; conditions: Fig. S24
T2 construct: made in house
T2 sequence (P78352 with tags, fused parts or gaps): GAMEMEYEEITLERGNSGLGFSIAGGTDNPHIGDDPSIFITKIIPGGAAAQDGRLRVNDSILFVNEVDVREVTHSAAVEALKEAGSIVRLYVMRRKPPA
Text: Since Class I PDZ domains bind to consensus sequences,[71,72] we set out to further assess the selectivity of the peptide-fragment hybrids against another Class I PDZ domain. We compared the ability to bind to SHANK1 PDZ against the ability to bind to the PDZ domain of PSD-95, a therapeutically important target in neuronal diseases and cancer.[58] We monitored the binding using chemical shift perturbations in the ^1H–^15N HSQC spectra of the PDZ domain of PSD-95 (Fig. S22, S23, Tables S7 and S8 ^†). […] However, PSD-95 also lacks the patch of cationic residues proximal to the C-terminal carboxylate binding site. Such a result provides confidence that the dynamic ligation screening approach used here can encode and retain selectivity.
PSD 95 PDZ1 amino acid sequence
Figure S22. Overlay of plots for 4-A047 with Ligand:protein ratio ranging from 1:1 to 100:1. The gradual change in chemical shifts of limited residues indicate that the binding of the ligand is specific and to the putative ligand binding site.
Figure S23. Mapping of chemical shift changes onto the structure of PSD95 PDZ1 using PDB Accession Code 2KA9 (cypin peptide in magenta). Residues whose chemical shifts are affected are coloured yellow; these residues line the binding site. […]
Table S7. Concentration dependent shift changes of compound 4-A047 for a few residues whose chemical shifts have been assigned […]

SHANK1 PDZ [4] = biological target: T1, SHANK1 PDZ; test: Fluorescence anisotropy direct titration with FITC-labelled GKAP tracer
Description: A diversity-based selection was performed on commercially available aldehyde fragments obeying guidelines for fragment-based drug design,[75] resulting in a small library of 129 compounds (A001–A129, Table S1 and Fig. S1 ^†). […] To allow us to perform the hybrid formation and screening in the presence of the target protein in a single step, it was necessary to first establish that SHANK1 PDZ was still able to bind to its natural ligand under the same conditions.
Figure S2. Rate of hydrazone exchange in 50 mM ammonium-acetate (NH4Ac), pH 6.5, 10 mM aniline buffer using 100 µM compound 4-A001 and 5 equivalents of three different aldehydes (corresponding to R2 groups) at room temperature. Hydrazone exchange was monitored by LC -MS; peaks for extracted ion chromatograms were integrated and normalized . […]
Figure S3. Fluorescence anisotropy direct titration of S HANK1 PDZ in 50 mM NH4Ac, pH 6.5 10 mM aniline containing buffer using 50 nM FITC-Ahx-GKAP as tracer. Plate was read after 24 hr incubation […]
Assays were performed in 50 mM NH4Ac, 10 mM aniline, pH 6.5 buffer. […] Fluorescence anisotropy direct titration assays were performed with protein concentration diluted over 24 points using ½ dilutions. […]
final protein concentration. […] For control wells, the tracer peptide was replaced with an identical volume of assay buffer and plates were read immediately, and after an hour or after 24 hours . […]

[5] = x-A001 incubated with 5 equiv aldehyde in presence of protein for 24 h, then 10 nM FITC-Ahx-TRL-COOH, SHANK1 PDZ 1 M, read-out: IC50 (Fig. S7-S9, S11, S12, hybrids selected for validation from single point screens)
[6] = 1 µM Shank1 PDZ, 10 nM FITC-Ahx-TRL-COOH, plates read immediately, room temperature, read-out: IC50 (Fig. S4, parent peptides and benzaldehyde hydrazones)
[7] = Table S2, relative to core Ac-TRL-OH motif

Row | Compound | Kd (SHANK1 PDZ [1]) | IC50 (SHANK1 PDZ [2]; [5]) | further results
1 | CC(C)C[C@H](NC(=O)[C@H](CCCNC(=N)N)NC(=O)[C@@H](NC(=O)CCC(=O)N/N=C/c1cccc(OC(C(=O)O)c2ccccc2)c1)[C@@H](C)O)C(=O)O (stereo partly drawn) [3-A161] | 4.8 ± 0.4 µM |  | 
2 | CC(C)C[C@H](NC(=O)[C@H](CCCNC(=N)N)NC(=O)[C@@H](NC(=O)CCCC(=O)NN=Cc1ccccc1)[C@@H](C)O)C(=O)O [4-A001] | 14.8 ± 0.8 µM |  | IC50 (SHANK1 PDZ [2]; [6]): 19 ± 3 µM
3 | CC(C)C[C@H](NC(=O)[C@H](CCCNC(=N)N)NC(=O)[C@@H](NC(=O)CCC(=O)NN=Cc1ccccc1)[C@@H](C)O)C(=O)O [3-A001] | 16 ± 3 µM |  | IC50 (SHANK1 PDZ [2]; [6]): 51 ± 3 µM; n (ITC stoichiometry) (SHANK1 PDZ [1]): 1.04 ± 0.04; ΔH (SHANK1 PDZ [1]): -2.32 ± 0.14 kcal/mol; ΔS (SHANK1 PDZ [1]): 59.0 J mol^−1 K^−1; GE group efficiency (-ΔΔG/ΔNnH) (SHANK1 PDZ [1]; [7]): 0.07; ΔΔG (ΔGCompound-ΔGAc-TRL-OH) (SHANK1 PDZ [1]; [7]): -0.201 kcal/mol
4 | Ac-EAQTRL-OH [GKAP, Ac-EAQTRL-COOH, reference compound] |  |  | n (ITC stoichiometry) (SHANK1 PDZ [1]): 1.07 ± 0.01; ΔH (SHANK1 PDZ [1]): -7.07 ± 0.096 kcal/mol; ΔS (SHANK1 PDZ [1]): 9.7 J mol^−1 K^−1; ΔΔG (ΔGCompound-ΔGAc-TRL-OH) (SHANK1 PDZ [1]; [7]): -1.44 kcal/mol
5 | CC(C)C[C@H](NC(=O)[C@H](CCCNC(=N)N)NC(=O)[C@@H](NC(=O)CCC(=O)N/N=C/c1ccccc1C(=O)O)[C@@H](C)O)C(=O)O [3-A047] | 8 ± 1 µM | 14 ± 1 µM | 
6 | CC(C)C[C@H](NC(=O)[C@H](CCCNC(=N)N)NC(=O)[C@@H](NC(=O)CCC(=O)N/N=C/c1ccc(Cl)cc1C(=O)O)[C@@H](C)O)C(=O)O [3-A144] | 7.1 ± 0.9 µM | 9 ± 1.6 µM | 
7 | CC(C)C[C@H](NC(=O)[C@H](CCCNC(=N)N)NC(=O)[C@@H](NC(=O)[C@H](CCC(N)=O)NC(=O)[C@H](C)NC(=O)[C@H](CCC(=O)O)NC(=O)CCCCCNC(=S)Nc1ccc2c(c1)C(=O)OC21c2ccc(O)cc2Oc2cc(O)ccc21)[C@@H](C)O)C(=O)O [FITC-Ahx-GKAP] ({FITC-Ahx}-EAQTRL-OH; C-terminus assumed) |  |  | Kd (SHANK1 PDZ [4]; 50 mM NH4Ac pH 6.5, 10 mM aniline, 50 nM tracer, read after 24 hr incubation at room temperature, read-out: KD (Fig. S3)): 0.96 ± 0.08 µM; Kd (SHANK1 PDZ [4]; KD (initial) of FITC labelled GKAP, pH 6.5, 10 mM aniline, did not significantly change over 24 hours): ~1 µM
8 | CC(C)C[C@H](NC(=O)[C@H](CCCNC(=N)N)NC(=O)[C@@H](NC(=O)CCC(=O)N/N=C/c1ccc(C(=O)O)cc1)[C@@H](C)O)C(=O)O [3-A048] | 10 ± 1 µM | 11 ± 1 µM | 

The next lines start with results.

Row | Kd (SHANK1 PDZ [1]) | IC50 (SHANK1 PDZ [2]; [5]) | Compound | further results
9 | 3.1 ± 0.2 µM | 3.7 ± 0.4 µM | CC(C)C[C@H](NC(=O)[C@H](CCCNC(=N)N)NC(=O)[C@@H](NC(=O)CCCC(=O)N/N=C/c1ccc(Cl)cc1C(=O)O)[C@@H](C)O)C(=O)O [4-A144] | 
10 | 4.6 ± 0.2 µM | 7.3 ± 0.6 µM | CC(C)C[C@H](NC(=O)[C@H](CCCNC(=N)N)NC(=O)[C@@H](NC(=O)CCCC(=O)N/N=C/c1ccccc1C(=O)O)[C@@H](C)O)C(=O)O [4-A047] | EC50 [3]: 2400 ± 300 µM
11 | 1.54 ± 0.05 µM |  | CC(C)C[C@H](NC(=O)[C@H](CCCNC(=N)N)NC(=O)[C@@H](NC(=O)CCCC(=O)N/N=C/c1cccc(OC(C(=O)O)c2ccccc2)c1)[C@@H](C)O)C(=O)O (stereo partly drawn) [4-A161] | 
12 | 3.1 ± 0.2 µM | 7.5 ± 0.8 µM | CC(C)C[C@H](NC(=O)[C@H](CCCNC(=N)N)NC(=O)[C@@H](NC(=O)CCCC(=O)N/N=C/c1ccc(C(=O)O)cc1)[C@@H](C)O)C(=O)O [4-A048] | 

— publication PMC8179271, “Identification of β-strand mediated protein–protein interaction inhibitors using ligand-directed fragment ligation” (Chemical Science, 2021)
